This is an account of results in ChEMBL document CHEMBL5696441 (Nat Chem Biol, 2011).

Assay [1] addresses Ribosomal protein S6 kinase alpha-4 (Homo sapiens) (UniProt O75676). As to the kind of experiment: Inhibition of N-terminal kinase domain RPS6KA4 (unknown origin) assessed as remaining activity at 1 uM by Kinome scan method relative to control.
Assay [2] concerns the target Mitogen-activated protein kinase kinase kinase 10 (Homo sapiens) (UniProt Q02779). The assay can be described thus: Inhibition of MLK2 (unknown origin) assessed as remaining activity at 1 uM by Kinome scan method relative to control.
The target of assay [3] is Cyclin-dependent kinase 2 (Homo sapiens) (UniProt P24941). The assay can be described thus: Inhibition of CDK2 (unknown origin) assessed as remaining activity at 1 uM by Kinome scan method relative to control.
The target of assay [4] is Phosphatidylinositol 3-kinase C2 domain-containing subunit gamma (Homo sapiens) (UniProt O75747). The assay can be described thus: Inhibition of PIK3C2G (unknown origin) assessed as remaining activity at 1 uM by Kinome scan method relative to control.
Chain of Phosphatidylinositol 3-kinase C2 domain-containing subunit gamma (Homo sapiens) (O75747 whole entry, the tested form may be a part): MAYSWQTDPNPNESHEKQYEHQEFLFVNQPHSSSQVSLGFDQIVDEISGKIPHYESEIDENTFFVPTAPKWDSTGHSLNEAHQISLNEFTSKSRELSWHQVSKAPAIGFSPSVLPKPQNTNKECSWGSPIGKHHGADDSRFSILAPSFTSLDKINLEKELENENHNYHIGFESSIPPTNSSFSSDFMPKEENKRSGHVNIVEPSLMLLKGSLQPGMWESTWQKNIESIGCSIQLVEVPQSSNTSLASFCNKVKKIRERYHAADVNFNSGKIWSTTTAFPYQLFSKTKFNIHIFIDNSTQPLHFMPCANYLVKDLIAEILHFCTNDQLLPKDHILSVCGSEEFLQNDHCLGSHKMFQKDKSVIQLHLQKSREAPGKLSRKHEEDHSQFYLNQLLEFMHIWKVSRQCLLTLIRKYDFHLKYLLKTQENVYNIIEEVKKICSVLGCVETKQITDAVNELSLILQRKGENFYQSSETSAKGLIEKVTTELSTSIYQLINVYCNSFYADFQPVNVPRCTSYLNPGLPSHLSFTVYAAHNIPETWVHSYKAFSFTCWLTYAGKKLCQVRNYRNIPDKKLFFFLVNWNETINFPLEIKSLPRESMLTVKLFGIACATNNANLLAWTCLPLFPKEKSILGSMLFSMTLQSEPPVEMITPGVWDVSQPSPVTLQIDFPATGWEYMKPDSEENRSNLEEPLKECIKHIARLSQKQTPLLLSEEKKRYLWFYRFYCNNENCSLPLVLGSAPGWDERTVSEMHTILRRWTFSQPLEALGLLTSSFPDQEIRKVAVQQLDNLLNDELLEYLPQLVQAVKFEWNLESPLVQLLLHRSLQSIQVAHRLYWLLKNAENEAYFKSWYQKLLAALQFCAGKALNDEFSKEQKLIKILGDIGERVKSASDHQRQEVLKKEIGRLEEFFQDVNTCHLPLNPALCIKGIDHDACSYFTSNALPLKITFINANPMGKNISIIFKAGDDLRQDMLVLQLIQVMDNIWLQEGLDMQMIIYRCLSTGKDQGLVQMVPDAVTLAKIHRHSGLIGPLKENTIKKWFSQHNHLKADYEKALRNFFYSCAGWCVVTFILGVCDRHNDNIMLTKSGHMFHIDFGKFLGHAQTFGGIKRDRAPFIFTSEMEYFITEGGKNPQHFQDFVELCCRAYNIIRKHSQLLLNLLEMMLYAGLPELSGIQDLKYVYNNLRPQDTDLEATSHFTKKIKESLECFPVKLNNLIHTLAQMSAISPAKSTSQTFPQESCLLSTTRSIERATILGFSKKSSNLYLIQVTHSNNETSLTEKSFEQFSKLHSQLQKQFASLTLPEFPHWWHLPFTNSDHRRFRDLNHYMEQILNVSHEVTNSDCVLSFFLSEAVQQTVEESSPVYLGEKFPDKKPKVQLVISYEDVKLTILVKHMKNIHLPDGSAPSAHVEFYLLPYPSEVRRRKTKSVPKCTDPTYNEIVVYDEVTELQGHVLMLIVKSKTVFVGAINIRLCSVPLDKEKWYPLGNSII
Assay [5] concerns the target Mitogen-activated protein kinase kinase kinase kinase 1 (Homo sapiens) (UniProt Q92918). The assay can be described thus: Inhibition of HPK1 (unknown origin) assessed as remaining activity at 1 uM by Kinome scan method relative to control.
The target of assay [6] is T1, Tyrosine-protein kinase TXK (Homo sapiens) (UniProt P42681).
T1 sequence (whole entry): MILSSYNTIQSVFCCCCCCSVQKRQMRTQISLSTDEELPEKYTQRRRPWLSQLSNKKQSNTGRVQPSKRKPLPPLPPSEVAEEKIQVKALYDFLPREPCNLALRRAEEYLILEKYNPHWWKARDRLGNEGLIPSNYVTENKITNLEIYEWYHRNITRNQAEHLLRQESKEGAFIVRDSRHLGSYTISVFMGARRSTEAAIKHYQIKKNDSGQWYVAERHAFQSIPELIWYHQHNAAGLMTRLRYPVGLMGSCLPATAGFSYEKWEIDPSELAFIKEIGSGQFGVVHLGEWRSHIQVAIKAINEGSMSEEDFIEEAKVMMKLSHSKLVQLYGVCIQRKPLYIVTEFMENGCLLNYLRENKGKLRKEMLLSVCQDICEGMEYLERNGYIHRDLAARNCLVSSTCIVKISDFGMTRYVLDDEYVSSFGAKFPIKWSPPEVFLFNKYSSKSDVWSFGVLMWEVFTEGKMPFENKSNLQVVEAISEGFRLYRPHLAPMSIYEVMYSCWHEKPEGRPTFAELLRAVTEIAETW
The assay can be described thus: Inhibition of TXK (unknown origin) assessed as remaining activity at 1 uM by Kinome scan method relative to control.

Assay [7] deals with Ankyrin repeat and protein kinase domain-containing protein 1 (Homo sapiens) (UniProt Q8NFD2). The assay can be described thus: Inhibition of ANKK1 (unknown origin) assessed as remaining activity at 1 uM by Kinome scan method relative to control.
The target in assay [8] is Myosin light chain kinase 2, skeletal/cardiac muscle (Homo sapiens) (UniProt Q9H1R3). The assay can be described thus: Inhibition of MYLK2 (unknown origin) assessed as remaining activity at 1 uM by Kinome scan method relative to control.
Assay [9] concerns the target Serine/threonine-protein kinase ICK (Homo sapiens) (UniProt Q9UPZ9). As to the kind of experiment: Inhibition of ICK (unknown origin) assessed as remaining activity at 1 uM by Kinome scan method relative to control.
For assay [10], the target named is Non-receptor tyrosine-protein kinase TYK2 (Homo sapiens) (UniProt P29597). As to the kind of experiment: Inhibition of TYK2 JH1 domain (unknown origin) assessed as remaining activity at 1 uM by Kinome scan method relative to control.
Assay [11] concerns the target Serine/threonine-protein kinase DCLK1 (Homo sapiens) (UniProt O15075). The assay can be described thus: Inhibition of DCAMKL1 (unknown origin) assessed as remaining activity at 1 uM by Kinome scan method relative to control.
In assay [12] the target is Tyrosine-protein kinase HCK (Homo sapiens) (UniProt P08631). As to the kind of experiment: Inhibition of HCK (unknown origin) assessed as remaining activity at 1 uM by Kinome scan method relative to control.
Chain of Tyrosine-protein kinase HCK (Homo sapiens) (P08631 2-526 limits assumed): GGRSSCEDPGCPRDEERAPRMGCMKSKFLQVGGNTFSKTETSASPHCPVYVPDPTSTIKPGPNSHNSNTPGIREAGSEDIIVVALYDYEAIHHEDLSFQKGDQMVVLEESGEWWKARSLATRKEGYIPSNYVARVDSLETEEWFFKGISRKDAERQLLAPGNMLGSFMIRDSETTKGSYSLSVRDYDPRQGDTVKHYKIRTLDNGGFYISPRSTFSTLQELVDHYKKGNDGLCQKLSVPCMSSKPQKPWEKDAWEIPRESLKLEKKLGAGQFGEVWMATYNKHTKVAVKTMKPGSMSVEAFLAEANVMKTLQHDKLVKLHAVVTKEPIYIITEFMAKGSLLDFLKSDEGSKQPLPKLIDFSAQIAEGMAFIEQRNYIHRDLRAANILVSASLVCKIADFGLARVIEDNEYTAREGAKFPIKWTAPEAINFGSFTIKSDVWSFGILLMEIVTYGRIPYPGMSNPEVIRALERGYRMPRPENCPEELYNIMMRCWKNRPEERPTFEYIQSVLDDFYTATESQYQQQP
The target in assay [13] is Serine/threonine-protein kinase PAK 5 (Homo sapiens) (UniProt Q9P286). As to the kind of experiment: Inhibition of PAK7 (unknown origin) assessed as remaining activity at 1 uM by Kinome scan method relative to control.
Chain of Serine/threonine-protein kinase PAK 5 (Homo sapiens) (Q9P286 whole entry, looked up): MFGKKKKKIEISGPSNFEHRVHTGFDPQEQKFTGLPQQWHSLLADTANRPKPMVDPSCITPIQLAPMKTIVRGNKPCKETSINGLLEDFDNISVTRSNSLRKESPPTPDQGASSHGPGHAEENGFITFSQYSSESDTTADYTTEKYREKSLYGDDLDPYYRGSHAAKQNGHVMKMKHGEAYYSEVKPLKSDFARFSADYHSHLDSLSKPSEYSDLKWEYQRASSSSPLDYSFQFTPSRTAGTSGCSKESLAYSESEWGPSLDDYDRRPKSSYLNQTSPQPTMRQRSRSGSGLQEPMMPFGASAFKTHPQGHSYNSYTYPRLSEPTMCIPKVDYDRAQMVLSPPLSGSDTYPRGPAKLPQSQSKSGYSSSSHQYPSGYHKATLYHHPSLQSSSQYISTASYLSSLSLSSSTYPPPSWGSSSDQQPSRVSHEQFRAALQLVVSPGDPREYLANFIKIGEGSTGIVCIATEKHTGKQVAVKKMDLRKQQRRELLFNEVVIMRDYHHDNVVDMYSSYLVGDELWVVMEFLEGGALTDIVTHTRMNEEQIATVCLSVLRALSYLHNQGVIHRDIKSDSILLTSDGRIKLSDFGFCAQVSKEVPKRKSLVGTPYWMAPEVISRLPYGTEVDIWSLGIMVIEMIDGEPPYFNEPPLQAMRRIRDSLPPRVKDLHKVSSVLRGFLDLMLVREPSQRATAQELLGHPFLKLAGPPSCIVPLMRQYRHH
The target in assay [14] is Mitogen-activated protein kinase kinase kinase 12 (Homo sapiens) (UniProt Q12852). As to the kind of experiment: Inhibition of DLK (unknown origin) assessed as remaining activity at 1 uM by Kinome scan method relative to control.
In assay [15] the target is T2, Ephrin type-B receptor 4 (Homo sapiens) (UniProt P54760).
T2 sequence (whole entry): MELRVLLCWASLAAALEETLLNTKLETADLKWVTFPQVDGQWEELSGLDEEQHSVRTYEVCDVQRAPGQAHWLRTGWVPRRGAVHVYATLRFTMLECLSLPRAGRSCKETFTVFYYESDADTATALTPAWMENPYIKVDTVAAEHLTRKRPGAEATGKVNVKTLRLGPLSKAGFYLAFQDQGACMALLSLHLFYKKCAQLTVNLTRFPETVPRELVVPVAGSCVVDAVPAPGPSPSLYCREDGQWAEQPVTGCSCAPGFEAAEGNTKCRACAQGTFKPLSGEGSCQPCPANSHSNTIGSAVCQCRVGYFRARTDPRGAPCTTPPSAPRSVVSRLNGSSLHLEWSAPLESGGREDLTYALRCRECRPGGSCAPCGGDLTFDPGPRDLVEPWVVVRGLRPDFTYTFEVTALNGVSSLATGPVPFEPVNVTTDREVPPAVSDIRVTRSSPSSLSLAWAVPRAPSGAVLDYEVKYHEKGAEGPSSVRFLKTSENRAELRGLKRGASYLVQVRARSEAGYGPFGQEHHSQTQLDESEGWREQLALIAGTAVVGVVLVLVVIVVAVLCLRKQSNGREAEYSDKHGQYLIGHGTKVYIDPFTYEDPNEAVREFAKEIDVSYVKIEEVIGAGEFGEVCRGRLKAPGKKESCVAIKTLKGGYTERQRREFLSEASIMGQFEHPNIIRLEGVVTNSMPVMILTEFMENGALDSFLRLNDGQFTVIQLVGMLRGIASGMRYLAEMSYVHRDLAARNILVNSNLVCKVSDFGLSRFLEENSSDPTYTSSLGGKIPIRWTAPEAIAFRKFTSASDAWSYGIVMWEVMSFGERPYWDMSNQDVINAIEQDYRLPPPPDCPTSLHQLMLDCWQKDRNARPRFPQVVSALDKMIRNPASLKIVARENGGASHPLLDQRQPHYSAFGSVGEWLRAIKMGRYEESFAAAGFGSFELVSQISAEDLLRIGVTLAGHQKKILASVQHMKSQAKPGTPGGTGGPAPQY
As to the kind of experiment: Inhibition of EPHB4 (unknown origin) assessed as remaining activity at 1 uM by Kinome scan method relative to control.

Chain of Mitogen-activated protein kinase kinase kinase kinase 1 (Homo sapiens) (Q92918 whole entry, looked up): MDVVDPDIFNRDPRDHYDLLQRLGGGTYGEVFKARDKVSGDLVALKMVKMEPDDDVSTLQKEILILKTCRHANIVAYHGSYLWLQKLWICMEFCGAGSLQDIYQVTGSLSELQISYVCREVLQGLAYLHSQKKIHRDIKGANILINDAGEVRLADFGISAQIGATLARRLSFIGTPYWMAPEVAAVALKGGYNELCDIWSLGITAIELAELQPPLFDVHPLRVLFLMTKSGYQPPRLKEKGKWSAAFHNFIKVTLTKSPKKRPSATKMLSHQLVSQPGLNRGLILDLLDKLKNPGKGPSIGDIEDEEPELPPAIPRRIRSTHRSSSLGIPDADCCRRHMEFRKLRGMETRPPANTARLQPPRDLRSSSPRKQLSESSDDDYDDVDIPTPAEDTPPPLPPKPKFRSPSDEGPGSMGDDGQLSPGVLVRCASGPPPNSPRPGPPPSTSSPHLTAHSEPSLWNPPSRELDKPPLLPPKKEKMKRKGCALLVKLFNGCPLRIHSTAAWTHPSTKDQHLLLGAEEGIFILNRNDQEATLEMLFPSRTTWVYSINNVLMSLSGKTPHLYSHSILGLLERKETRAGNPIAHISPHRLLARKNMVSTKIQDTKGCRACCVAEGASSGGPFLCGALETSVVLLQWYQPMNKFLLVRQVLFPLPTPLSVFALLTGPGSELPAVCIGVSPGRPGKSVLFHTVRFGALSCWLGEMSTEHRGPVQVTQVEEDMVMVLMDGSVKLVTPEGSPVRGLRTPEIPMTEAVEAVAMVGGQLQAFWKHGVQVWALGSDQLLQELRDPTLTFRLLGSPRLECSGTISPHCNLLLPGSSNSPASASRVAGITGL
Chain of Ribosomal protein S6 kinase alpha-4 (Homo sapiens) (O75676 whole entry, looked up, the tested form may be a part): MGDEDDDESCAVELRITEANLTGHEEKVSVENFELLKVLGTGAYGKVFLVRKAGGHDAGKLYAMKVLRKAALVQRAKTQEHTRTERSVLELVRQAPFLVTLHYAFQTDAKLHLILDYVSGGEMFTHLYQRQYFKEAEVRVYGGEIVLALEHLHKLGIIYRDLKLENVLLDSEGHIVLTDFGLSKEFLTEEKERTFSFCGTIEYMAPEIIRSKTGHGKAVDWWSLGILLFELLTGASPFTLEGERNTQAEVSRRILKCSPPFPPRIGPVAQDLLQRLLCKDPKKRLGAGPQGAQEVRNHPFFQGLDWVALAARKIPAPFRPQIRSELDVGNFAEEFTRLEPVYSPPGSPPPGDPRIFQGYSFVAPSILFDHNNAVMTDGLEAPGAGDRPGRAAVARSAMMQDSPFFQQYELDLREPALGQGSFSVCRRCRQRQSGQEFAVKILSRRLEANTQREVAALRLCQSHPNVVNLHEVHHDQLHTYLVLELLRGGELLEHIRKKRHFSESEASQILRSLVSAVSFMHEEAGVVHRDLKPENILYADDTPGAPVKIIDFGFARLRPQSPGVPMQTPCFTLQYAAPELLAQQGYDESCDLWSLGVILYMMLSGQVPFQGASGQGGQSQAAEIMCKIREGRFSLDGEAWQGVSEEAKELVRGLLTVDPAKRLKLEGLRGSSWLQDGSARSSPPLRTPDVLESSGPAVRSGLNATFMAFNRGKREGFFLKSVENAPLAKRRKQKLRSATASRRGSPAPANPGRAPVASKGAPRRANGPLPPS
Chain of Serine/threonine-protein kinase DCLK1 (Homo sapiens) (O15075 whole entry): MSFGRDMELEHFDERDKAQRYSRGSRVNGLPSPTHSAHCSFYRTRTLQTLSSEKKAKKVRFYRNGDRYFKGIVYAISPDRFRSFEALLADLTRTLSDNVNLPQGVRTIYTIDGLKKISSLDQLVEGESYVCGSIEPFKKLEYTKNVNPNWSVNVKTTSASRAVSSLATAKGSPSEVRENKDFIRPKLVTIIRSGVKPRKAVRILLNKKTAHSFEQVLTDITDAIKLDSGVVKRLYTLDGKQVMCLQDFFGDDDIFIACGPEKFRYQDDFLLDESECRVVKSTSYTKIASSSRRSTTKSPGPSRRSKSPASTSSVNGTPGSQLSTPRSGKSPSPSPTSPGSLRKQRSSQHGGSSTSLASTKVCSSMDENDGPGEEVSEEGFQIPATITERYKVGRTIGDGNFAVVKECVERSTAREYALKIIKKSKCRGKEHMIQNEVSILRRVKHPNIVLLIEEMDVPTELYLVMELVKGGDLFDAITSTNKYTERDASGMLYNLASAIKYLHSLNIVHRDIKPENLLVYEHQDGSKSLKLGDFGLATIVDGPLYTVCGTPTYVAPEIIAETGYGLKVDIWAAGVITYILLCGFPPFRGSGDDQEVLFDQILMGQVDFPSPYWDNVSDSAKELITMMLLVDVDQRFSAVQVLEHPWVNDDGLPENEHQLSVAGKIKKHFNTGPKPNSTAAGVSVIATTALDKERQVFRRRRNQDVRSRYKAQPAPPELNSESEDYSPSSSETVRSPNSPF

Turning to `Nc1ccccc1Nc1ccc2c(c1)CCc1ccccc1C2=O`, the Activity in assay [1] stood at 94%; in [2], 92%; in assay [3], 97%; in [4] it was 97%; in assay [5], 96%; in assay [6] it was 90%. The Activity is 96% in assay [7]; 87% in [8]; 83% in assay [9]; 83% in [10]; 92% in assay [11]; 93% in assay [12]. Also, the Activity in assay [13] is 91%; in [14] it was 98%; in assay [15] it was 97%.

For the molecule `O=C1c2ccc(Nc3ccc(F)cc3F)cc2CCc2ccc(OC[C@H](O)CO)cc21` [Skepinone-L], the Activity stood at 82% in [1]; 85% in assay [2]; 98% in [3]; 100% in [4]; 85% in assay [5]; 86% in assay [6]. Besides, the Activity in assay [7] is 99%; in assay [8] it was 90%; in assay [9], 99%; in assay [10], 58%; in assay [11], 97%; in assay [12], 97%. Also, the Activity stood at 86% in assay [13], 94% in assay [14] and 100% in [15].
